Measured values taken from publication PMC6950057, “Toxicity, Pharmacokinetics, and Gut Microbiome of Oral Administration of Sesterterpene MHO7 Derived from a Marine Fungus” (Marine Drugs, 2019).
Read-outs that look alike come from different tables or passages of the source.

Test: Tissue distribution after single oral dose
Type: in vivo, mice
Conditions: for concentration at 12 h / concentration at 20 h / concentration at 30 h / concentration at 1 h / concentration at 4 h / concentration at 8 h / Kp: KM, mouse; for Kp: female
Description: The animals and treatment methods were the same as in the pharmacokinetic studies. Afterwards, the biological samples (n = 6 per group) were collected at 1, 4, 8, 12, 20, and 30 h, and the tissues including heart, liver, spleen, lung, kidney, stomach, intestine, brain, muscle (hind limb), fat (white adipose tissue ), reproductive organs (uterus, fallopian tube and ovary) stomach and its contents, and intestine and its contents, and the blood samples were simultaneously collected. All the tissues were washed with cold physiological saline (4 °C), excess fluid blotted, accurately weighed, and subjected to the processing as described in the sample preparation. QC samples and standard curve series solutions were prepared in the same way of blank gastrointestinal contents and livers, respectively. The concentrations of HQC, MQC, and LQC in mice tissues were 10, 1, and 0.1 μM·L^−1, respectively, and the concentrations of standard curve series solutions were 50, 25, 10, 5, 2.5, 1, 0.5, 0.25, 0.1, and 0.005 μM·L^−1 for high and low concentrations of standard curves.

[1] = liver, oral 500 mg·kg^−1, female mice, read-out: Concentration in Liver
[2] = lung, oral 500 mg·kg^−1, female mice, read-out: Concentration in Lung
[3] = muscle (hind limb), oral 500 mg·kg^−1, female mice, read-out: Concentration in Muscle
[4] = reproductive organs (uterus, fallopian tube and ovary), oral 500 mg·kg^−1, female mice, read-out: Concentration in Reproductive organs
[5] = spleen, oral 500 mg·kg^−1, female mice, read-out: Concentration in Spleen

CC(C)=C/C=C/[C@H](C)[C@H]1CC[C@]2(C)C[C@@H]3C(C)=CC(=O)[C@H]3/C(C=O)=C\C[C@@H]12 [MHO7, 6-epi-ophiobolin G]
concentration at 12 h [1]: 490 ± 370 ng/g | concentration at 20 h [1]: 60 ± 50 ng/g | concentration at 30 h [1]: 10 ± 10 ng/g | concentration at 1 h [2]: 430 ± 180 ng/g | concentration at 4 h [2]: 1060 ± 450 ng/g | concentration at 8 h [2]: 820 ± 710 ng/g | concentration at 12 h [2]: 2340 ± 1910 ng/g | concentration at 20 h [2]: 160 ± 40 ng/g | concentration at 30 h [2]: 80 ± 20 ng/g | concentration at 1 h [3]: 310 ± 220 ng/g | concentration at 4 h [3]: 970 ± 480 ng/g | concentration at 8 h [3]: 640 ± 370 ng/g | concentration at 12 h [3]: 1420 ± 800 ng/g | concentration at 20 h [3]: 170 ± 100 ng/g | concentration at 30 h [3]: 20 ± 3 ng/g | concentration at 1 h [4]: 880 ± 680 ng/g | concentration at 4 h [4]: 2290 ± 1800 ng/g | concentration at 8 h [4]: 23900 ± 11300 ng/g | concentration at 12 h [4]: 13700 ± 10300 ng/g | concentration at 20 h [4]: 1460 ± 1230 ng/g | concentration at 30 h [4]: 360 ± 460 ng/g | concentration at 1 h [5]: 40 ± 30 ng/g | concentration at 4 h [5]: 430 ± 200 ng/g | concentration at 8 h [5]: 480 ± 500 ng/g | concentration at 12 h [5]: 200 ± 140 ng/g | concentration at 20 h [5]: 310 ± 20 ng/g | concentration at 30 h [5]: 10 ± 4 ng/g | Kp (brain, over 1-30 h, oral 500 mg·kg^−1, read-out: tissue/plasma concentration ratio range, brain): 0.36 to 6.11 | Kp (fat (white adipose tissue), over 1-30 h, oral 500 mg·kg^−1, read-out: tissue/plasma concentration ratio range, fat): 2.33 to 14 | Kp (heart / plasma, over 1-30 h, oral 500 mg·kg^−1, read-out: tissue/plasma concentration ratio range, heart): 0.31 to 4.2 | Kp (intestines, oral 500 mg·kg^−1, read-out: tissue/plasma concentration ratio, intestines): > 100 | Kp (kidney, over 1-30 h, oral 500 mg·kg^−1, read-out: tissue/plasma concentration ratio range, kidney): 0.68 to 17.2 | Kp (liver, over 1-30 h, oral 500 mg·kg^−1, read-out: tissue/plasma concentration ratio range, liver): 0.18 to 17.4 | Kp (lung, over 1-30 h, oral 500 mg·kg^−1, read-out: tissue/plasma concentration ratio range, lung): 0.72 to 6.84 | Kp (muscle (hind limb), over 1-30 h, oral 500 mg·kg^−1, read-out: tissue/plasma concentration ratio range, muscle): 0.99 to 5.54 | Kp (reproductive organs (uterus, fallopian tube and ovary), over 1-30 h, oral 500 mg·kg^−1, read-out: tissue/plasma concentration ratio range, reproductive organs): 6.05 to 30.4 | Kp (spleen, over 1-30 h, oral 500 mg·kg^−1, read-out: tissue/plasma concentration ratio range, spleen): 0.28 to 8.55 | Kp (stomach, oral 500 mg·kg^−1, read-out: tissue/plasma concentration ratio, stomach): > 1000 | amount in the intestine and its contents, of the intake (oral 500 mg·kg^−1, female mice): less than 5% | amount in the stomach and its contents, of the intake (oral 500 mg·kg^−1, female mice): 16.79% | concentration range in fat (over 1-30 h, oral 500 mg·kg^−1): 0.18–11.15 | concentration range in the brain (over 1-30 h, oral 500 mg·kg^−1): 0.01–0.95 | concentration range in the heart (over 1-30 h, oral 500 mg·kg^−1): 0.04–0.85 | concentration range in the kidney (over 1-30 h, oral 500 mg·kg^−1): 0.07–8.16 | concentration range in the liver (over 1-30 h, oral 500 mg·kg^−1): 0.01–3.01 | concentration range in the lung (over 1-30 h, oral 500 mg·kg^−1): 0.08–2.34 | concentration range in the muscle (over 1-30 h, oral 500 mg·kg^−1): 0.02–1.42 | concentration range in the reproductive organs (over 1-30 h, oral 500 mg·kg^−1): 0.36–23.90 | concentration range in the spleen (over 1-30 h, oral 500 mg·kg^−1): 0.01–0.48
